Data published in patent US20240299328A1, “COMPOSITIONS COMPRISING 15-HEPE AND METHODS OF TREATING AND/OR PREVENTING HEMATOLOGIC DISORDERS AND RELATED DISEASES” (Afimmune Limited, priority 2023, published 2024).
Where two headings read alike, the source gives them in different places.

Key:
[1] = system: TβR-I, TβR-II, TβR-III, EGFR and caveolin-1 in Mv1Lu cells; assay: Sucrose density gradient analysis of TGF-β receptors in Mv1Lu plasma membranes; format: cell-based, mink
Protocol: The sucrose gradient fractions were then analyzed by Western blot analysis using anti-TβR-I (type I TGF-β receptor), anti-TβR-II (type II TGF-β receptor), anti-TβR-III (type III TGF-β receptor, betaglycan), anti-EGFR (epidermal growth factor receptor), and anti-caveolin-1 antibodies.
The sucrose gradient fractions were then analyzed by Western blot analysis using anti-TβR-I (type I TGF-β receptor-FIG. 18C), anti-TβR-II (type II TGF-β receptor-FIG. 18D), anti-TβR-III (type III TGF-β receptor, betaglycan-FIG. 18E), anti-EGFR (epidermal growth factor receptor-FIG. 18F), and anti-caveolin-1 antibodies (FIG. 18G).

[2] = system: TGF-β-stimulated intracellular signaling (SMAD2/3 phosphorylation) in LX2 cells; assay: TGF-β-stimulated SMAD2/3 phosphorylation in LX2 liver stellate cells; format: cell-based, human; conditions: 0 μM to 100 μM for 24 hours, then 30 min TGF-β stimulation
[3] = system: TGF-β signaling in HepG2 cells; assay: TGF-β-induced EMT protein expression and type II TGF-β receptor in HepG2 cells; format: cell-based, human
Protocol: The effects of 15-HEPE on TGF-β-induced signaling and cellular responses were determined. To test the effect of 15-HEPE on TGF-β-induced signaling, the activities of 15-HEPE to regulate TGF-β-stimulated Smad2 phosphorylation and nuclear translocation, both of which are key signaling events leading to TGF-β-induced cellular responses, were tested. One important biological activity of TGF-β is transcriptional activation of genes responsible for epithelial-mesenchymal transition (EMT), which is a crucial event in wound healing, tissue fibrosis, and cancer progression. The effect of 15-HEPE on TGFβ-induced epithelial mesenchymal transition related proteins (such as fibronectin, PAI-1, and N-cadherin etc.) expression in HepG2 and LXR cells were assessed. HepG2 cells (human hepatoma cell line) were treated in increasing doses of 15-HEPE stage II in DMEM containing 0.1% of FBS for 1 hour and continually stimulated with or without 200 picomolar (pM) of TGF-β for 48 hours. […] HepG2 cells (human hepatoma cell line) were treated in increasing doses of 15-HEPE stage II in DMEM containing 0.1% of FBS for 1 hour and continually stimulated with or without 200 picomolar (pM) of TGF-β for 48 hours. The two panels shown in FIG. 18A are two separate experiments run under the same experimental conditions.

[4] = system: α-SMA, TIMP-1, TGF-β and Collagen Type 1 mRNA; assay: UUO study: quantitative RT-PCR of kidney; format: in vivo; conditions: UUO mice kidney, normalized to 36B4, Day 14, mean ± SD
Protocol: Quantitative RT-PCR: Total ribonucleic acid (RNA) was extracted from kidney samples using RNAiso. One μg of RNA was reverse-transcribed using a reaction mixture containing […] (mM) of magnesium chloride (MgCl2), 40 U RNase inhibitor, 0.5 mM dNTP, 6.28 µM random hexamer, 5× first strand buffer, 10 mM dithiothreitol and 200 U MMLV-RT in a final volume of 20 μL. The reaction was carried out for 1 hour at 37° C., followed by 5 minutes at 99° C. Real-time PCR was performed using real-time PCR DICE and TB Green™ Premix Ex Taq™ II. To calculate the relative […] (mRNA) expression level, the expression of each gene (e.g., α-SMA, TIMP-1, TGF-β and Collagen Type 1) was normalized to that of reference gene 36B4 (gene symbol: Rplp0). Information regarding the PCR-primer sets and the plate layout are described in Tables 1 and 2.

UUO mice [5] = assay: UUO study: Sirius red staining, kidney fibrosis area; format: in vivo
Protocol: Histopathological analysis: To visualize collagen deposition, kidney sections were stained using picro-Sirius red solution. For quantification of interstitial fibrosis area, bright field images in the corticomedullary region were captured using a digital camera at 200-fold magnification, and the positive areas in 5 fields/section were measured.

UUO mice [6] = format: in vivo
Protocol: UUO Surgery: On day 0 of the study, UUO surgery was performed on mice under pentobarbital sodium anesthesia. The mouse's hair was first shaved and then abdomen cut open to exteriorize the mouse's left ureter. The ureter was ligated 4-0 nylon sutures at two points. The mouse's peritoneum and skin were then closed with sutures, and the mouse transferred to a clean cage until recovered from the anesthesia. Sham operated mice had their left ureter exposed but not ligated. […]
Animals: Seven-week-old female C57BL/6 mice (i.e., animals) were obtained and were housed and fed with a normal diet under controlled conditions. The animals were maintained in a specific-pathogen free (SPF) facility under controlled conditions of temperature (e.g., 23±2° C.), humidity (e.g., 45±10%), lighting (e.g., 12-hour artificial light and dark cycles; light from 8:00 to 20:00) and air exchange. A high pressure was maintained in the experimental room to prevent contamination of the facility. The animals were housed in TPX cages with a maximum of 4 mice per cage. Sterilized Paper-Clean was used for bedding and replaced once a week. Sterilized solid normal diet was provided ad libitum, being placed in a metal lid on the top of the cage. Pure water was also provided ad libitum from a water bottle equipped with a rubber stopper and a sipper tube. Water bottles were replaced once a week, cleaned, and sterilized in an autoclave and reused. Mice were identified by ear punch and each cage was labeled with a specific identification code.
Animal Monitoring and Sacrifice: The viability, clinical signs and behavior for the mice were monitored daily. Individual body weight was measured daily before treatment during the treatment period. […] The animals were sacrificed by exsanguination through direct cardiac puncture under isoflurane anesthesia at Day 14.

[7] = system: adhesion of SCD patient RBCs to heme-activated HUVECs; assay: Endothelialized microfluidic system: SCD patient RBC adhesion to heme-activated HUVECs; format: cell-based, human; conditions: 6 hours, n=7; for adhesion of RBCs to heme-activated endothelium: treatment of RBCs; for adhesion of SCD patient RBCs to endothelium: treatment of heme-activated HUVECs
Protocol: Whole blood samples were collected from 7 SCD subjects with HbSS genotype at University Hospitals Cleveland Medical Center, Cleveland, OH, USA. RBCs were isolated after centrifugation of whole blood collected in EDTA and were resuspended in basal cell culture medium (EBM; Lonza, Morristown, NJ, USA) with 10 mM of HEPES to reach 20% hematocrit. Human umbilical vein endothelial cells (HUVECs; Lonza, Morristown, NJ, USA) were seeded within the microfluidic channels and cultured for at least 72 hours at 15 dyne/cm2 prior to experiments. Tested concentrations of 15(S)-HEPE were selected based on clinical pharmacokinetics for 15(S)-HEPE at 2 g/day and 4 g/day Epeleuton doses. Incubation of RBCs or HUVECs with 15(S)-HEPE was conducted at 37° C. for 6 hours. In one experiment 15(S)-HEPE-treated tor vehicle-treated RBCs flowed on untreated HUVECs and in the second experiment untreated RBCs flowed on 15(S)-HEPE-treated or vehicle-treated […]. In both cases a short-term acute activation was conducted where RBCs were supplemented with 40 μM heme and injected through the microfluidic channels for 15 minutes. Non-adherent RBCs were washed with basal cell culture medium. Phase-contrast images of the remaining RBCs were recorded using inverted microscope (DMi8 Leica Microsystems Inc. Deerfield, IL, USA) and the images were analyzed based on previous published methods. Statistical significance was assessed using paired t-test

[8] = HepG2 cells, increasing doses, 1 hour, then with or without 200 pM TGF-β for 48 hours
[9] = 5 mg/kg PO QD Day 0-13, Day 14, mean ± SD
[10] = 50 mg/kg PO QD Day 0-13, Day 14, mean ± SD
[11] = 250 mg/kg PO QD Day 0-13, Day 14, mean ± SD

CC/C=C\CC(O)/C=C/C=C\C/C=C\C/C=C\CCCC(=O)O (stereo not shown) [15-HEPE, 15-hydroxy-eicosa-5Z,8Z,11Z,13E, 17Z-pentaenoic acid]
localization and abundance of TβR-III, EGFR and caveolin-1 ([1]; 100 μM, 0, 1, 4, 24 hours): did not change | abundance of TβR-I proteins ([1]; 100 μM, 37° C., 0, 1, 4, 24 hours): did not affect the abundance | TβR-II degradation ([1]; 100 μM, 24 hours treatment): induce degradation | translocation of TβR-I to lipid-raft ([1]; 100 μM, 24 hours treatment): induced translocation | TβR-II translocation ([1]; 100 μM, from 1 to 4 hours): induced TβR-II translocation | TGF-β-stimulated intracellular signaling (SMAD2/3 phosphorylation) [2]: inhibits | TGF-β induced epithelial mesenchymal transition (EMT) (pro-fibrotic) protein production [3, 8]: blocked | type II TGF-β receptor [3, 8]: induced degradation | TGF-β signaling ([3]; liver cell lines (HepG2, LX2)): directly inhibit

CCCCCC(O)/C=C/C=C\C/C=C\CCCCCCC(=O)O (stereo not shown) [DS109, 15-hydroxy-eicosa-8Z, 11Z, 13E-trienoic acid]
Alpha-SMA mRNA expression level ([4]; 5 mg/kg PO QD Day 0-13): 3.87 ± 0.82 | Collagen Type 1 mRNA expression level ([4]; 5 mg/kg PO QD Day 0-13): 10.76 ± 1.45 | TGF-β mRNA expression level ([4]; 5 mg/kg PO QD Day 0-13): 4.29 ± 0.93 | TIMP-1 mRNA expression level ([4]; 5 mg/kg PO QD Day 0-13): 153.60 ± 37.12 | Alpha-SMA mRNA expression level ([4]; 50 mg/kg PO QD Day 0-13): 4.61 ± 3.15 | Collagen Type 1 mRNA expression level ([4]; 50 mg/kg PO QD Day 0-13): 15.23 ± 11.52 | TGF-β mRNA expression level ([4]; 50 mg/kg PO QD Day 0-13): 6.01 ± 4.77 | TIMP-1 mRNA expression level ([4]; 50 mg/kg PO QD Day 0-13): 167.70 ± 122.60 | Alpha-SMA mRNA expression level ([4]; 250 mg/kg PO QD Day 0-13): 4.85 ± 1.22 | Collagen Type 1 mRNA expression level ([4]; 250 mg/kg PO QD Day 0-13): 13.88 ± 1.91 | TGF-β mRNA expression level ([4]; 250 mg/kg PO QD Day 0-13): 5.48 ± 0.36 | TIMP-1 mRNA expression level ([4]; 250 mg/kg PO QD Day 0-13): 180.90 ± 23.12 | Sirius red-positive area (%)_Median (UUO mice [5]; 5 mg/kg PO QD Day 0-13, Day 14, median): 3.22 ± 1.47% | Sirius red-positive area (%)_Median (UUO mice [5]; 50 mg/kg PO QD Day 0-13, Day 14, median): 3.28 ± 1.41% | Sirius red-positive area (%)_Median (UUO mice [5]; 250 mg/kg PO QD Day 0-13, Day 14, median): 3.76 ± 0.81% | Body Weight (UUO mice [6]; [9]): 19.1 ± 0.9 g | Left Kidney Weight (UUO mice [6]; [9]): 533 ± 138 mg | Left Kidney-to-Body Weight Ratio (UUO mice [6]; [9]): 2.79 ± 0.65% | Right Kidney Weight (UUO mice [6]; [9]): 137 ± 7 mg | Right Kidney-to-Body Weight Ratio (UUO mice [6]; [9]): 0.71 ± 0.04% | Body Weight (UUO mice [6]; [10]): 18.6 ± 0.6 g | Left Kidney Weight (UUO mice [6]; [10]): 523 ± 91 mg | Left Kidney-to-Body Weight Ratio (UUO mice [6]; [10]): 2.83 ± 0.50% | Right Kidney Weight (UUO mice [6]; [10]): 135 ± 6 mg | Right Kidney-to-Body Weight Ratio (UUO mice [6]; [10]): 0.73 ± 0.05% | Body Weight (UUO mice [6]; [11]): 18.6 ± 0.7 g | Left Kidney Weight (UUO mice [6]; [11]): 425 ± 105 mg | Left Kidney-to-Body Weight Ratio (UUO mice [6]; [11]): 2.26 ± 0.53% | Right Kidney Weight (UUO mice [6]; [11]): 130 ± 13 mg | Right Kidney-to-Body Weight Ratio (UUO mice [6]; [11]): 0.70 ± 0.05%

CC/C=C\C[C@H](O)/C=C/C=C\C/C=C\C/C=C\CCCC(=O)O [15(S)-HEPE, 15(S)-hydroxy-(5Z,8Z,11Z,13E,17Z)-eicosapentaenoic acid]
adhesion of RBCs to heme-activated endothelium ([7]; 50 µM, p=0.01): significantly decreased | adhesion of RBCs to heme-activated endothelium ([7]; 100 µM, p=0.001): significantly decreased | adhesion of SCD patient RBCs to endothelium ([7]; 50 μM, p=0.03): significantly decreased | adhesion of SCD patient RBCs to endothelium ([7]; 100 μM, p=0.01): significantly decreased
